Where no end group is shown, it is not given here.
What was measured:
MtIOMT5 = target: T1, MtIOMT5 (Medicago truncatula, UniProt Q29U70); test: OMT assays with purified recombinant MtIOMT5 (relative activity; HPLC/MS of products); format: biochemical; conditions: for Position of methylation / reaction products, MtIOMT5: HPLC against standards, tandem MS
T1 construct: His-tag (N); made in house; host or cells: E. coli BL21(DE3)
T1 sequence (Q29U70 1-364): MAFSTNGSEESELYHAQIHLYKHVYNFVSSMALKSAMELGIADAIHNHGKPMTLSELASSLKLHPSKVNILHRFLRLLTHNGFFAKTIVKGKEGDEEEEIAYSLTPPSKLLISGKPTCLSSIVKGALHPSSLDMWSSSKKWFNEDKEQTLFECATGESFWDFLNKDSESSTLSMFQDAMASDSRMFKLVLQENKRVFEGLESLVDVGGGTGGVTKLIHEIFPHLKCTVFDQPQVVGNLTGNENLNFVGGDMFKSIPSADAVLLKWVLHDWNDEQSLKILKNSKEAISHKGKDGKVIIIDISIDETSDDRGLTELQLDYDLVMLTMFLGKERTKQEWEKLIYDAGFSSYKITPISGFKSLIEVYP
Excerpt: (§1) Cloning of MtIOMT5 (corresponding to TC 100926, TIGR MtGI v.8) was as described previously (Liu et al., 2005). To obtain a full-length cDNA for MtIOMT2, specific primers designed based upon the M. truncatula genomic sequence were used to amplify the MtIOMT2 coding sequence from M. truncatula root cDNA. The amplified product was cloned into the pGEM®-T easy vector (Promega, Madison Wis.) and sequenced to confirm its identity. MtIOMTs were cloned into the pET28a vector (EMD Biosciences, Inc., San Diego, Calif.) using PCR-based amplification with primers designed to introduce EcoRI and XhoI restriction sites; BamHI and XhoI sites were used for cloning MtIOMT6 due to the presence of an internal EcoRI site in this particular cDNA. Because the EST for MtIOMT8 was missing a start codon, the primer designed to clone MtIOMT8 into pET28a contained an additional 2-nucleotide insertion to generate an ATG start site. All MtIOMTs were expressed as translational fusions to an N-terminal His-tag. Expression of MtIOMTs in E. coli BL21(DE3) and purification by Ni^2+-NTA chromatography were as described (Zubieta et al., 2001). Proteins were dialyzed against 20 mM Tris pH 8.0, 100 mM NaCl, 10% (v/v) glycerol, and 14 mM β-mercaptoethanol. Protein concentration was determined by Bradford assay using BSA as a standard (Bradford, 1976).
(§2) Reactions (200 μl) were performed in 0.1 M potassium phosphate, pH 7.4, 10% (w/v) sucrose, 14 mM β-mercaptoethanol with 10 μM protein, 0.5 mM S-adenosyl-L-methionine, and 80 μM phenolic substrates. All substrates were purchased from Indofine (Hillsborough, N.J.) except 6,7-dihydroxy-4′-methoxyisoflavone, dihydrodaidzein, and vestitol, which were purchased from Apin (Oxfordshire, UK). […] OMT assays were incubated at 30° C. for 2 h and extracted with ethyl acetate. Ethyl acetate extracts were dried under N2 and the resultant material was resuspended in 50-100 μl of methanol. Samples were analyzed on an Agilent 1100 HPLC, equipped with a quaternary pump (model #G1311A), a degasser (model #G1322A), an autosampler (model #G1313A), and a diode array detector (model #G1315A). Samples of 20 μl were applied to an ODS2 reverse-phase column (5 μm particle size, 4.6×250 mm) and eluted in 1% (v/v) phosphoric acid with an increasing gradient of acetonitrile (0-5 min, 25%; 5-35 min, 25-50%; 35-39 min, 50-100%) at a flow rate of 1 ml/min. To resolve the 4′-O-methylated and 7-O-methylated products of genistein, samples were applied to a Phenomenex SYNERGI Polar-RP 80 Å column (4 μm particle size, 4.6×250 mm) and eluted in water with an increasing gradient of acetonitrile (0-5 min, 20%; 5-17 min, 20-38%; 17-33 min, 38%; 33-45 min, 38-56%; 45-46 min, 56-100%) at a flow rate of 1 ml/min. Chiral chromatography was performed as described (Liu et al., 2005).
(§3) For determination of specific activities, reactions (100 μl) were performed in 0.1 M potassium phosphate, pH 7.4, 10% (w/v) sucrose, 14 mM β-mercaptoethanol with 0.2-μg protein, 50 μM S-adenosyl-L-methionine (0.025 μCi ^14C-SAM per reaction), and 100 μM substrate. Reactions were incubated at 30° C. for 15-25 min and stopped by addition of 4 μl of 1N HCl. Products were extracted into 500 μl of ethyl acetate and 400 μl was used for liquid scintillation counting.
An HP 1100 series II LC system (Hewlett-Packard, Palo Alto, Calif.) with a photodiode array detector was coupled to a Bruker Esquire ion-trap mass spectrometer (ITMS) equipped with an electrospray ionization source. A reverse phase, C18, 5 μm, 4.6×250 mm column (J. T. Baker, Phillipsburg, N.J.) was used for separations. The mobile phase consisted of 0.1% (v/v) acetic acid using linear gradients of 5-90% acetonitrile (v/v) in 70 min. The flow rate was 0.8 ml/min, and the temperature of the column was kept at 28° C. Both positive- and negative-ion mass spectra were acquired. […]

MtIOMT7 = test: OMT assays with purified recombinant MtIOMT7 (relative activity; HPLC/MS of products); format: biochemical, Medicago truncatula; conditions: 50 μM S-adenosyl methionine, 100 μM acceptor substrate; most converted substrate = 100%
Excerpt: as §1, §2, §3
An HP 1100 series II LC system (Hewlett-Packard, Palo Alto, Calif.) with a photodiode array detector was coupled to a Bruker Esquire ion-trap mass spectrometer (ITMS) equipped with an electrospray ionization source. A reverse phase, C18, 5 μm, 4.6×250 mm column (J. T. Baker, Phillipsburg, N.J.) was used for separations. The mobile phase consisted of 0.1% (v/v) acetic acid using linear gradients of 5-90% acetonitrile (v/v) in 70 min. The flow rate was 0.8 ml/min, and the temperature of the column was kept at 28° C. Both positive- and negative-ion mass spectra were acquired.

MsI7OMT = target: T2, MsI7OMT (Medicago sativa, UniProt O24529); conditions: reported by He et al., 1998; cited from earlier work
T2 sequence (O24529 1-352): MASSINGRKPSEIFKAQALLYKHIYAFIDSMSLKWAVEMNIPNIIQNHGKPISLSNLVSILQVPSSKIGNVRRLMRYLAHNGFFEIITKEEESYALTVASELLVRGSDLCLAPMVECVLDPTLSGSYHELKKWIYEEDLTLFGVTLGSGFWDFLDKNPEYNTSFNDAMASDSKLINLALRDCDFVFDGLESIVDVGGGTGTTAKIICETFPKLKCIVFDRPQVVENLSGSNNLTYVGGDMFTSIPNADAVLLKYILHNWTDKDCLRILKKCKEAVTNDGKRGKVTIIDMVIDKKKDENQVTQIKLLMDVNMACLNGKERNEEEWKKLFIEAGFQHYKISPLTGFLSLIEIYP

[1] = Specific activity of the purified IOMTs with the most converted substrate; format: biochemical; conditions: 50 μM S-adenosyl methionine, 100 μM acceptor substrate
Description: as §3

[2] = Quantification of methylated products in reactions with dihydrodaidzein; format: biochemical
Description: as §2
An HP 1100 series II LC system (Hewlett-Packard, Palo Alto, Calif.) with a photodiode array detector was coupled to a Bruker Esquire ion-trap mass spectrometer (ITMS) equipped with an electrospray ionization source. A reverse phase, C18, 5 μm, 4.6×250 mm column (J. T. Baker, Phillipsburg, N.J.) was used for separations. The mobile phase consisted of 0.1% (v/v) acetic acid using linear gradients of 5-90% acetonitrile (v/v) in 70 min. The flow rate was 0.8 ml/min, and the temperature of the column was kept at 28° C. Both positive- and negative-ion mass spectra were acquired. Positive-ion ESI was performed using an ion source voltage of 4.0 KV and a capillary offset voltage of 86.0 V. Nebulization was aided with a coaxial nitrogen sheath gas provided at a pressure of 60 psi. Desolvation was aided using a counter current nitrogen flow set at a pressure of 12 psi and a capillary temperature of 300° C. Mass spectra were recorded over the range 50-2200 m/z. The ITMS was operated under an ion current control of approximately 10,000 with a maximum acquire time of 100 ms. Tandem mass spectra were obtained in manual mode for targeted masses using an isolation width of 2.0, fragmentation amplitude of 2.2 and threshold set at 6,000.
To determine the regio-specificity of methylation, reaction products were subjected to HPLC separation and identified by comparison to available standards, or subjected to tandem MS analysis (FIGS. 10-13; Table 4)

O=C1c2ccc(O)cc2OC(O)C1c1ccc(O)cc1 (stereo not drawn) [2,7,4′-trihydroxyisoflavanone]
Relative activity, MtIOMT5 (MtIOMT5; 50 μM S-adenosyl methionine, 100 μM acceptor substrate, most converted substrate = 100%): 100% | Position of methylation / reaction products, MtIOMT5 (MtIOMT5): exclusively methylated on the 4′-position | Relative activity, MtIOMT7 (MtIOMT7): 24.8%

O=C1C[C@@H](c2ccc(O)cc2)Oc2cc(O)ccc21 [Liquiritigenin]
Position of methylation / reaction products, MtIOMT5 (MtIOMT5): methylated on the 4′-positions | Enantiomer methylated, MtIOMT5 (MtIOMT5; chiral HPLC of unreacted substrate): preferentially methylates the (2R)-enantiomer

COc1ccc(-c2coc3cc(O)cc(O)c3c2=O)cc1 [biochanin A]
Activity of MsI7OMT with 4′-methoxyisoflavones (in words) (MsI7OMT): little activity

MtIOMT1: M. truncatula isoflavonoid O-methyltransferase, His-tagged, expressed in E. coli; GenBank AY942159 (TYVGGDMFTSIPNADAVLLKYILHNWTDKDCTRILKKCKE; cysteine pairing not given here; also: His-tagged; listed as Medicago truncatula)
Specific activity at 100% [1]: 3646.7 pkat/mg | % 4′-Methylated [2]: 0% | % 7-Methylated [2]: >99% | % Dimethylated [2]: <1% | Ratio 4′/7-methylated [2]: 0

MtIOMT2: M. truncatula isoflavonoid O-methyltransferase, His-tagged, expressed in E. coli; GenBank DQ419910 (NFVGGDMFKSVPSADAVLLKWVLHDWNDELCLKILKNCKE; His tag; listed as Medicago truncatula)
Specific activity at 100% [1]: 930.2 pkat/mg | % 4′-Methylated [2]: 33% | % 7-Methylated [2]: 66% | % Dimethylated [2]: <1% | Ratio 4′/7-methylated [2]: 0.5

MtIOMT3: M. truncatula isoflavonoid O-methyltransferase, His-tagged, expressed in E. coli; GenBank DQ419911 (TYVGGDMFISVPKADAVLLKAVLHDWTDKDCIKILKKCKE; cysteine pairing not given here; also: His-tagged; listed as Medicago truncatula)
Specific activity at 100% [1]: 7.4 pkat/mg | % 4′-Methylated [2]: 92% | % 7-Methylated [2]: 8% | % Dimethylated [2]: 0% | Ratio 4′/7-methylated [2]: 11.4
